Test results as given in US10556905B2, “Processes for preparing a diazabicyclooctane compound” (priority 2012, dated 2020).
Like-named read-outs stand apart in the source and are kept apart here.

Columns and labels:
TEM-1 = molecular target: T1, TEM-1 (Escherichia coli, UniProt P62593); assay: β-Lactamase inhibitory activity (nitrocefin hydrolysis), TEM-1; type: biochemical; conditions: TEM-1 0.1 nM, 100 μM nitrocefin, pre-incubation 30° C. 10 minutes
T1 construct: AmpC, TEM-1, KPC-2 or OXA-2 domain excluding signal peptide was amplified with PCR; made in house; host or cells: Escherichia coli BL21 (DE3), pET-28b(+)
Protocol: Using Pseudomonas aeruginosa ATCCBAA-47 genome, plasmid pBR322, Klebsiella pneumoniae ATCCBAA-1705, and P. aeruginosa MSC17696 as a template, each DNA for encoding β-lactamase, AmpC, TEM-1, KPC-2 or OXA-2 domain excluding signal peptide was amplified with PCR. Each of the PCR product was incorporated into pET-28b(+)vector (Merck), introduced into Escherichia coli BL21 (DE3) (Merck), and, under induction of 1 mM isopropyl-β-D-(−)-thiogalactopyranoside (Nacalai Tesque), cultured overnight at 20° C. to express AmpC, TEM-1, KPC-2, and OXA-2. After the bacterial cell was collected, AmpC was purified from the cell extract obtained by ultrasonic treatment, using CM Sepharose Fast Flow (GE Healthcare) and HiTrap Heparin HP (GE Healthcare) at 4° C. TEM-1 was purified with HiTrap SPHP (GE Healthcare), HiTrap Q (GE Healthcare) and Mono Q (GE Healthcare), and KPC-2 was purified with HiTrap SPHP. OXA-2 was purified with HiTrap SPHP and HiTrap Heparin HP.
For the measurement of β-lactamase inhibitory activity, 100 μM (final concentration) nitrocefin (Oxoid) was used as a substrate, and 2.5% DMSO, 10 μg/mL bovine serum derived albumin (Sigma-Aldrich) and 50 mM phosphate buffer at pH 7.0 were used as a reaction solution. […] Nitrocefin was added to each well to be mixed therein, followed by incubation at 30° C. for 20 minutes, and Multiscan Ascent (Thermo Fisher Scientific) was used to measure 492 nm wavelength, thereby measuring nitrocefin hydrolytic activity of β-Lactamase, to determine enzyme inhibitory activity. […] As the inhibitory activity strength, less than 0.1 μM, less than 1 μM, less than 3 μM, less than 10 μM, and 10 μM or more were shown with A, B, C, D, and E respectively.

AmpC = molecular target: T2, AmpC (Pseudomonas aeruginosa, UniProt P24735); assay: biochemical
T2 construct: AmpC, TEM-1, KPC-2 or OXA-2 domain excluding signal peptide was amplified with PCR; made in house; host or cells: Escherichia coli BL21 (DE3), pET-28b(+)

OXA-2 = molecular target: T3, OXA-2 (Escherichia coli, UniProt P0A1V9); assay: biochemical; set-up: species or system P. aeruginosa
T3 construct: AmpC, TEM-1, KPC-2 or OXA-2 domain excluding signal peptide was amplified with PCR; made in house; host or cells: Escherichia coli BL21 (DE3), pET-28b(+)

KPC-2 = molecular target: T4, KPC-2 (Klebsiella pneumoniae, UniProt Q9F663); assay: β-Lactamase inhibitory activity (nitrocefin hydrolysis), KPC-2; type: biochemical; conditions: KPC-2 0.5 nM, 100 μM nitrocefin, pre-incubation 30° C. 10 minutes
T4 construct: AmpC, TEM-1, KPC-2 or OXA-2 domain excluding signal peptide was amplified with PCR; made in house; host or cells: Escherichia coli BL21 (DE3), pET-28b(+)

[1] = OXA-2 2 nM, 100 μM nitrocefin, pre-incubation 30° C. 10 minutes, read-out: β-Lactamase inhibitory activity OXA-2 (IC50)

T3 sequence (P0A1V9 22-275): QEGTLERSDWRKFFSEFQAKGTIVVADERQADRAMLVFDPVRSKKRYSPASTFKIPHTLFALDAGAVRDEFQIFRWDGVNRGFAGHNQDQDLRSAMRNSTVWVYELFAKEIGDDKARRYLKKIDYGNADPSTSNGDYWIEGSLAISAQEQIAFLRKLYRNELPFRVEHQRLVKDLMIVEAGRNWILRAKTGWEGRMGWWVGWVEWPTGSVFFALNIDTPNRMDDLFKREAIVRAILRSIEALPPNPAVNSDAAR
T1 sequence (P62593 24-286 limits assumed): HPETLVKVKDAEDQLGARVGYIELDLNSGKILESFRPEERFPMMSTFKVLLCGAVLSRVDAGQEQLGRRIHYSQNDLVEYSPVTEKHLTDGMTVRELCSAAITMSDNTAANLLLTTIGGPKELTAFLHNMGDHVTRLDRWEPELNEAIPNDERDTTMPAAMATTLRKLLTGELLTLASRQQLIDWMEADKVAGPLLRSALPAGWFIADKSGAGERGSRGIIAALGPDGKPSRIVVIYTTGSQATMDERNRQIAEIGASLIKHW
T4 sequence (Q9F663 25-293, looked up): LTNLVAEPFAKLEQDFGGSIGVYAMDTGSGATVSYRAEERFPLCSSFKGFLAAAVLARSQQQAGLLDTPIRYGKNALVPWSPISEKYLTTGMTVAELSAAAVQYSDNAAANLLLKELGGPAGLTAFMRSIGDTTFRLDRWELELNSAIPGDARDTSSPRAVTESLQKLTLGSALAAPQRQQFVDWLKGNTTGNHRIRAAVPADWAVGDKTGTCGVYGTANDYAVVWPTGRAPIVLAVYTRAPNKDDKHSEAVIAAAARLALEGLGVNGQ
T2 sequence (P24735 27-397): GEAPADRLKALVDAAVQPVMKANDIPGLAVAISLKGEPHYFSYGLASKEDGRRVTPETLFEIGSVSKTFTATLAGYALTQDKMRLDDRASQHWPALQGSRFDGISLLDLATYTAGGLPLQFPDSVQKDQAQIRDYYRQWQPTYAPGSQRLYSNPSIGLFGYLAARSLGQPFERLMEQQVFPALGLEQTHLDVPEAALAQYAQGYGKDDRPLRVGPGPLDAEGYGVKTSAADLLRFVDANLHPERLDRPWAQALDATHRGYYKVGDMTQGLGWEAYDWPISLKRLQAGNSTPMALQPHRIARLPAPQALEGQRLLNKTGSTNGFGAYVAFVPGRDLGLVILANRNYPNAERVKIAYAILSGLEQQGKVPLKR

SMILES | IC50 (TEM-1) [nM] | IC50 (AmpC) [nM] | IC50 (OXA-2) [µM] | IC50 (KPC-2) [nM] | IC50 (OXA-2; [1]) [µM]
CN(NC(=O)[C@@H]1CC[C@@H]2CN1C(=O)N2OS(=O)(=O)O)C(=O)OC(C)(C)C (racemic) [Example 18, Sodium tert-butyl 1-methyl-2-{[(2SR,5RS)-7-oxo-6-(sulfooxy)-1,6-diazabicyclo[3.2.1]oct-2-yl]carbonyl}hydrazinecarboxylate] | < 100 | 100 to 1000 | 1 to 3 | 100 to 1000 | –
CNNC(=O)[C@@H]1CC[C@@H]2CN1C(=O)N2OS(=O)(=O)O (racemic) [Example 19, (2SR,5RS)—N′-Methyl-7-oxo-6-(sulfooxy)-1,6-diazabicyclo[3.2.1]octane-2-carbohydrazide] | < 100 | 100 to 1000 | – | 100 to 1000 | –
CN(C)NC(=O)[C@@H]1CC[C@@H]2CN1C(=O)N2OS(=O)(=O)O (racemic) [Example 20, Sodium (2SR,5RS)—N′,N′-dimethyl-7-oxo-6-(sulfooxy)-1,6-diazabicyclo[3.2.1]octane-2-carbohydrazide] | 100 to 1000 | 100 to 1000 | 3 to 10 | 1000 to 3000 | –
CC(=O)N(C)NC(=O)[C@@H]1CC[C@@H]2CN1C(=O)N2OS(=O)(=O)O (racemic) [Example 25, Sodium (2SR,5RS)—N′-acetyl-N′-methyl-7-oxo-6-(sulfooxy)-1,6-diazabicyclo[3.2.1]octane-2-carbohydrazide] | < 100 | 100 to 1000 | > 10 | < 100 | –
NCC(=O)NNC(=O)[C@@H]1CC[C@@H]2CN1C(=O)N2OS(=O)(=O)O (racemic) [Example 26, (2SR,5RS)—N′-(Aminoacetyl)-7-oxo-6-(sulfooxy)-1,6-diazabicyclo[3.2.1]octane-2-carbohydrazide] | 100 to 1000 | 1000 to 3000 | – | 1000 to 3000 | –
O=C(NNC(=O)[C@@H]1CC[C@@H]2CN1C(=O)N2OS(=O)(=O)O)c1ccccc1 (racemic) [Example 30, Sodium (2SR,5RS)—N′-benzoyl-7-oxo-6-(sulfooxy)-1,6-diazabicyclo[3.2.1]octane-2-carbohydrazide] | < 100 | 100 to 1000 | – | 100 to 1000 | –
NCc1ccc(C(=O)NNC(=O)[C@@H]2CC[C@@H]3CN2C(=O)N3OS(=O)(=O)O)cc1 (racemic) [Example 32, (2SR,5RS)—N′-(4-(Aminomethyl)benzoyl)-7-oxo-6-(sulfooxy)-1,6-diazabicyclo[3.2.1]octane-2-carbohydrazide] | < 100 | < 100 | – | 100 to 1000 | 3 to 10
O=C(NN1CCCC1=O)[C@@H]1CC[C@@H]2CN1C(=O)N2OS(=O)(=O)O (racemic) [Example 33, Sodium (2SR,5RS)-7-oxo-N-(2-oxopyrrolidin-1-yl)-6-(sulfooxy)-1,6-diazabicyclo[3.2.1]octane-2-carboxamide] | < 100 | 100 to 1000 | 3 to 10 | 100 to 1000 | –
O=C(NNC(=O)[C@@H]1CC[C@@H]2CN1C(=O)N2OS(=O)(=O)O)Nc1ccccc1 (racemic) [Example 49, Sodium 2-{[(2SR,5RS)-7-oxo-6-(sulfooxy)-1,6-diazabicyclo[3.2.1]oct-2-yl]carbonyl}-N-phenylhydrazinecarboxamide] | < 100 | 100 to 1000 | 3 to 10 | 100 to 1000 | –
CC(C)(C)OC(=O)NNC(=O)[C@@H]1CC[C@@H]2CN1C(=O)N2OS(=O)(=O)O (racemic) [Example 53, Sodium tert-butyl 2-{[(2SR,5RS)-7-oxo-6-(sulfooxy)-1,6-diazabicyclo[3.2.1]oct-2-yl]carbonyl}hydrazinecarboxylate] | < 100 | 100 to 1000 | – | 100 to 1000 | –
O=C(NN1CCOCC1)[C@@H]1CC[C@@H]2CN1C(=O)N2OS(=O)(=O)O (racemic) [Example 55, Sodium (2SR,5RS)—N-(morpholin-4-yl)-7-oxo-6-(sulfooxy)-1,6-diazabicyclo[3.2.1]octane-2-carboxamide] | 100 to 1000 | 100 to 1000 | 3 to 10 | 1000 to 3000 | –
CCONC(=O)[C@@H]1CC[C@@H]2CN1C(=O)N2OS(=O)(=O)O (racemic) [Example 57, Sodium (2SR,5RS)—N-ethoxy-7-oxo-6-(sulfooxy)-1,6-diazabicyclo[3.2.1]octane-2-carboxamide] | < 100 | 100 to 1000 | – | 1000 to 3000 | –
NNC(=O)[C@@H]1CC[C@@H]2CN1C(=O)N2OS(=O)(=O)O [Example 17, (2S,5R)-7-Oxo-6-(sulfooxy)-1,6-diazabicyclo[3.2.1]octane-2-carbohydrazide] | < 100 | 100 to 1000 | – | 100 to 1000 | 3 to 10
CC(=O)NNC(=O)[C@@H]1CC[C@@H]2CN1C(=O)N2OS(=O)(=O)O [Example 21, Sodium (2S,5R)—N′-acetyl-7-oxo-6-(sulfooxy)-1,6-diazabicyclo[3.2.1]octane-2-carbohydrazide] | < 100 | 100 to 1000 | 1 to 3 | 100 to 1000 | –
CCC(=O)NNC(=O)[C@@H]1CC[C@@H]2CN1C(=O)N2OS(=O)(=O)O [Example 22, Sodium (2S,5R)-7-oxo-N′-propanoyl-6-(sulfooxy)-1,6-diazabicyclo[3.2.1]octane-2-carbohydrazide] | < 100 | 100 to 1000 | 3 to 10 | 100 to 1000 | –
CC(C)C(=O)NNC(=O)[C@@H]1CC[C@@H]2CN1C(=O)N2OS(=O)(=O)O [Example 23, Sodium (2S,5R)—N′-(2-methylpropanoyl)-7-oxo-6-(sulfooxy)-1,6-diazabicyclo[3.2.1]octane-2-carbohydrazide] | < 100 | 100 to 1000 | 3 to 10 | 100 to 1000 | –
CC(C)(C)C(=O)NNC(=O)[C@@H]1CC[C@@H]2CN1C(=O)N2OS(=O)(=O)O [Example 24, Sodium (2S,5R)—N′-(2,2-dimethylpropanoyl)-7-oxo-6-(sulfooxy)-1,6-diazabicyclo[3.2.1]octane-2-carbohydrazide] | 100 to 1000 | 100 to 1000 | – | 100 to 1000 | –
NCCC(=O)NNC(=O)[C@@H]1CC[C@@H]2CN1C(=O)N2OS(=O)(=O)O [Example 27, (2S,5R)—N′-(3-Aminopropanoyl)-7-oxo-6-(sulfooxy)-1,6-diazabicyclo[3.2.1]octane-2-carbohydrazide] | < 100 | 100 to 1000 | – | 1000 to 3000 | 1 to 3
Nc1ccc(CC(=O)NNC(=O)[C@@H]2CC[C@@H]3CN2C(=O)N3OS(=O)(=O)O)cc1 [Example 28, (2S,5R)—N′-[(4-Aminophenyl)acetyl]-7-oxo-6-(sulfooxy)-1,6-diazabicyclo[3.2.1]octane-2-carbohydrazide] | < 100 | < 100 | – | 100 to 1000 | 3 to 10
O=C([C@@H]1CC[C@@H]2CN1C(=O)N2OS(=O)(=O)O)N1CCCCO1 [Example 71, Sodium (2S,5R)-2-(1,2-oxazinan-2-ylcarbonyl)-6-(sulfooxy)-1,6-diazabicyclo[3.2.1]octane-7-one] | < 100 | 100 to 1000 | – | 100 to 1000 | –
O=C(NOCCN1CCNCC1)[C@@H]1CC[C@@H]2CN1C(=O)N2OS(=O)(=O)O [Example 73, (2S,5R)-7-Oxo-N-[2-(piperazin-1-yl)ethoxy]-6-(sulfooxy)-1,6-diazabicyclo[3.2.1]octane-2-carboxamide] | < 100 | < 100 | – | 100 to 1000 | –
O=C(NOCCn1ccnc1)[C@@H]1CC[C@@H]2CN1C(=O)N2OS(=O)(=O)O [Example 86, Sodium (2S,5R)—N-[2-(1H-Imidazol-1-yl)ethoxy]-7-oxo-6-(sulfooxy)-1,6-diazabicyclo[3.2.1]octane-2-carboxamide] | < 100 | < 100 | – | 100 to 1000 | –
O=C(NC1CCNCC1)[C@@H]1CC[C@@H]2CN1C(=O)N2OS(=O)(=O)O [MK-7655, reference compound] | – | – | – | – | 0.1 to 1
NC(=O)[C@@H]1CC[C@@H]2CN1C(=O)N2OS(=O)(=O)O [NXL104, reference compound] | – | – | – | – | 0.1 to 1
C[C@]1(Cn2ccnn2)[C@H](C(=O)O)N2C(=O)C[C@H]2S1(=O)=O [TAZ, tazobactam, reference compound] | – | – | – | 100 to 1000 | < 0.1
